Source: publication PMC6037779, “Repurposing drugs to target the malaria parasite unfolding protein response” (Scientific Reports, 2018)

Key:
PfGRP78 = molecular target: T1, PfGRP78 (Plasmodium falciparum, UniProt Q05866); assay: PfGRP78 protein levels by immuno-blot after exposure of P. falciparum W2 culture; format: cell-based
T1 construct: endogenous in cells; host or cells: P. falciparum W2 culture in human red blood cells
Procedure: Culture aliquots were taken at several time points and the PfGRP78 levels of were evaluated by immuno-blots (Fig. 4). […] Thus, providing further support to the notion that Apoptozole antiplasmodial activity is mediated by its effect on PfGRP78.
A 55 ml suspension of ring-stage P. falciparum W2 parasites at 1.5% parasitaemia and 1.5% of hematocrit were split into 11 culture dishes of 5 ml each. One culture plate was served as a starting point (0 h) and of the remaining ten culture plates, half were exposed to 45 µM Apoptozole and half to DMSO 0.09% for 6 h. After 6 h the Apoptozole or DMSO were removed by washing the parasite culture with complete media twice. Culture dishes contained control (DMSO) and Apoptozole treated parasites were incubated at 37 °C in 5% O2 and 5% CO2 atmosphere throughout the duration of the experiment. One of each control and treated group were harvest at times 1, 3, 6, 24 and 48 hours. Samples were processed by harvesting the red blood cell using centrifugation 5 min at 5000 g and washed twice with PBS 1 × 5000 g for 1 min at 4 °C. The pellet was resuspended in 1 ml of 0.02% saponin-PBS solution (Sigma, Aldrich) and centrifuged 10 min 11000 g at 4 °C. The parasite pellet was washed twice with PBS and resuspended in 100 µl PBS. A 30 µl sample was mixed with 30 µl of Laemlii lysis buffer (BioRad) and 3 µl 14.1 M 2-mercaptoethanol (BioRad) and boiled for 10 min. […]

PfGRP78-NBD Y39F = molecular target: T2, PfGRP78-NBD Y39F (Plasmodium falciparum, UniProt Q05866, Y39F); assay: DSF thermal shift, PfGRP78-NBD Y39F mutant; format: binding
T2 construct: His-tag (pET28-MHL, TEV site) (N, cleaved yes); made in house; host or cells: E. coli BL21(DE3)
Procedure: Initially, their binding was determined using a DSF (Differential Scanning Fluorimetry) assay. In this assay, an interaction between the chaperone and a compound was measured as a change in the protein’s melting temperature (Tm), by subtracting the Tm of the protein by itself to the melting value of the protein in the presence of the compound. Differences above or below 1 °C between the melting temperatures (ΔTm) were considered indicative of a protein-compound interaction.
DSF screening was carried out using a CFX96 Touch Real-Time PCR Detection System (BioRad, California). The PfGRP78-FL, PfGRP78-NBD wild type and mutant, and human GRP78-NBD were buffered in 25 mM hepes pH 7.5, 250 mM NaCl and assayed in a 96-well format. The final concentration of the protein sample was optimized between 0.05 and 0.2 mg/ml for each protein. The concentration was optimized for each protein to avoid saturation of the fluorescence detector. The GRP78 inhibitors were used at a final concentration of 0.5 mM. SYPRO Orange (Life Technologies, USA) was added as a fluorescence probe in a dilution of 1:1000.

HCT-116 = assay: Growth inhibition of human cell line; format: cell-based
Procedure: (§1) Growth inhibition experiments were conducted at least three times per compound. […] The statistical analysis was performed with the software Prism 7 (GraphPad Software, San Diego, CA).

[1] = tested on: Plasmodium falciparum 3D7; assay: In vitro growth inhibition assay (SYBR Green I), strain 3D7; format: cell-based; settings: Plasmodium falciparum, 3D7; chloroquine-sensitive strain; 72 hours; average of three ± SD; read-out: EC50, growth inhibition, P. falciparum 3D7
Procedure: A major goal of our study was to evaluate the drug target potential of P. falciparum GRP78, thus we evaluated the effect of the chaperone inhibition on the malaria parasite. Our approach took advantage of several GRP78 inhibitors (Fig. 3a) previously characterized against human cancer cell lines, which were commercially available[20],[24]–[27]. These compounds were tested against two different parasite strains with opposite sensitivity towards the antimalarial drug chloroquine, 3D7 (sensitive) and W2 (resistant). […] A synchronized P. falciparum culture, with over 80% ring forms, was used in the growth inhibition assay. Each strain was assayed at 0.5% parasitaemia and 1.5% hematocrit. A 190 µL aliquot of parasite culture was dispensed per well to microplates that were pre-dispensed with the compounds at various dilutions. […] Dilutions of GRP78 inhibitors and DHA were prepared in water with a final concentration of DMSO below 0.05% (v/v). […] After incubation, the plates were subject to a freeze-thaw cycle (−80 °C) and the parasite growth was quantified by the SYBR Green I method as previously described. Briefly, 100 µl of homogenized parasite culture was transferred into 96-well black plates. 100 µl of SYBR Green lysis buffer (2x SYBR Green I, 100 mM Tris-HCl pH 7.5, 10 mM EDTA, 0.016% Saponin and 1.6% Triton X-100) were added to each well. The plates were incubated at room temperature in darkness for 1 hour.
as §1

T1 sequence (Q05866 25-652): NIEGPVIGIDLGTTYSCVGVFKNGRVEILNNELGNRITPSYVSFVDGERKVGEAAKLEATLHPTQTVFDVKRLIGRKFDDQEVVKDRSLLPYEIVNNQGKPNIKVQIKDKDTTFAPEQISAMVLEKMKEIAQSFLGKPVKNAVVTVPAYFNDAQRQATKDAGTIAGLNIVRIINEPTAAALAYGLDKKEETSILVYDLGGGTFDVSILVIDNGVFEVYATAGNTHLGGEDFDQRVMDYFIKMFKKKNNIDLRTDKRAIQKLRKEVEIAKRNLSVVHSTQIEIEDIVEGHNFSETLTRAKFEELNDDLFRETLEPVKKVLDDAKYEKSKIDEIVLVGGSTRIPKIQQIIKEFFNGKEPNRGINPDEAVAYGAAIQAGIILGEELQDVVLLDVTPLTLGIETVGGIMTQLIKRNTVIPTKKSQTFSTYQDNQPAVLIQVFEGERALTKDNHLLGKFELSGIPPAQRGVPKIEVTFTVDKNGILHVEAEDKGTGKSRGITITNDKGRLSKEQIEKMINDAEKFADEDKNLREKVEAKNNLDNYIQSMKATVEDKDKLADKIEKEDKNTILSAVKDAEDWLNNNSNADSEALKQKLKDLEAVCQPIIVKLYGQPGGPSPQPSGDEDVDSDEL
T2 sequence (Q05866 26-404 Y39F): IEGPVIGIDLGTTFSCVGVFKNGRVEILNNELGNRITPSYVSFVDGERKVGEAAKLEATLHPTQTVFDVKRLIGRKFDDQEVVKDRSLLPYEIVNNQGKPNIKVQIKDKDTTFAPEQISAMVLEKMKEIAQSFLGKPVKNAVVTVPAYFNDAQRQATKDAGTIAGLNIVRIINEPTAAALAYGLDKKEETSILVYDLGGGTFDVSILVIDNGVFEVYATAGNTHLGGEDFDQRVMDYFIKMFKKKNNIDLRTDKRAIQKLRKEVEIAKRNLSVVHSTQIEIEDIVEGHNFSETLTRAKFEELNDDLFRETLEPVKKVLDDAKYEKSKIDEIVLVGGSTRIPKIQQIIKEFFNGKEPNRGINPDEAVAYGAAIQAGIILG

COc1ccc(-c2nc(-c3cc(C(F)(F)F)cc(C(F)(F)F)c3)n(Cc3ccc(C(N)=O)cc3)c2-c2ccc(OC)cc2)cc1 [Apoptozole]
PfGRP78 levels, first 6 hours (PfGRP78; 45 µM (10xEC50) for 6 h): did not changed
PfGRP78 levels, 24 and 48 h time points (PfGRP78; 45 µM (10xEC50) for 6 h then washed): clear reduction
DSF binding to PfGRP78-NBD Y39F (PfGRP78-NBD Y39F): failed to bind
EC50 (HCT-116; HCT-116, human cell line, average of three ± SD, read-out: EC50, growth inhibition, HCT-116): 16.5 ± 12.8 µM
times more selective towards P. falciparum (HCT-116; HCT-116 vs P. falciparum EC50, Results text b30): 2.9 times
EC50 [1]: 6.8 ± 1.4 µM
